Test results published in paper PMC12302229, “Synergy of triazolyl substituents at C1 and C3 of galactose for high-affinity and selective galectin-4C inhibition” (RSC Chemical Biology, 2025).

Legend:
galectin-4N = biological target: T1, galectin-4N (Homo sapiens, UniProt P56470); assay: competitive fluorescence polarization assay, galectin-4N; type: binding; settings: Kd and SEM from 3–6 single point measurements, read-out: Dissociation constants, Galectin-4N
T1 construct: called “N” for the N-terminal CRD and “C” for the C-terminal
T1 sequence (P56470 19-150 limits assumed): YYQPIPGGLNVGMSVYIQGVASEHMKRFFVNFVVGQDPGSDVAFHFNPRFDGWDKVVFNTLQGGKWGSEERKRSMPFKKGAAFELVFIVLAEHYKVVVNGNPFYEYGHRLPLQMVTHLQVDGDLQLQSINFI
Description: (§1) Affinities of 1c–1z for galectin-1, -3, -4C, -4N, -7, -8C, -8N, -9C, and -9N were measured using an established fluorescence polarization assay[57] with reported probes and conditions.[19] […]
(§2) triazol-1-yl]-3’-(3,5-di-methoxybenzamido)-1,1’-sulfanediyl-di-β-D-galactopyranoside) concentration of 20 nM, respectively. Inhibitors were dissolved in dimethylsulfoxide (analytical grade) to a concentration of 20 mM, diluted with PBS to 3–6 different concentrations, and tested in duplicate twice for galectin affinity using a competitive fluorescence polarization assay as earlier described.3 The highest inhibitor concentrations tested were 1 mM due to solubility limitations at higher concentration. Dissociation constants average and SEM were calculated from two to eight single point measurements showing between 20–80% inhibition. […]

galectin-4C = biological target: T2, galectin-4C (Homo sapiens, UniProt P56470); assay: competitive fluorescence polarization assay, galectin-4C; type: binding; settings: for Kd: fluorescence polarization, x/y cells = only two data points revealed inhibition, both shown, > values estimated, no apparent binding at highest concentration, read-out: Dissociation constants, Galectin-4C
T2 construct: made in house; host or cells: E. coli BL-21 (DE3)
T2 sequence (P56470 185-323): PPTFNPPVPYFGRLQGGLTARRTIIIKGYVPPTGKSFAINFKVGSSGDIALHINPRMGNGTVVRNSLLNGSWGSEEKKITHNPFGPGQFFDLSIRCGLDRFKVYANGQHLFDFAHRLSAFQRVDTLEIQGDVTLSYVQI
Description: Affinities of 1c–1z for galectin-1, -3, -4C, -4N, -7, -8C, -8N, -9C, and -9N were measured using an established fluorescence polarization assay[57] with reported probes and conditions.[19]
Recombinant human galectin-4 C-terminal carbohydrate recognition domain was expressed and purified as previously reported.[57,70] Briefly, BL-21 (DE3) E. coli cells containing galectin-4C (amino acid sequence 185–323) was expressed, lysed by sonication and purified by affinity chromatography on a lactosyl-Sepharose column. Galectin-4C protein was eluted using 50 mM β-lactose in PBS, pH 7.4. Galectin-4C was then further gel purified using a Superdex 200/60 column (GE Healthcare) previously equilibrated in PBS, pH 7.4. The peak fractions collected containing galectin-4C were pooled and concentrated to 6.5 mg mL^−1 using an AmiconUltra 3K molecular weight cut-off centrifugal concentrator (Millipore, Billerica, MA, USA) and used directly in crystallisation studies. […]
as §2

galectin-1 = biological target: T3, galectin-1 (Homo sapiens, UniProt P09382); assay: competitive fluorescence polarization assay, galectin-1; type: binding; settings: fluorescence polarization; Kd and SEM from 3–6 single point measurements; read-out: Dissociation constants, Galectin-1
T3 construct: made in house
T3 sequence (P09382 whole entry): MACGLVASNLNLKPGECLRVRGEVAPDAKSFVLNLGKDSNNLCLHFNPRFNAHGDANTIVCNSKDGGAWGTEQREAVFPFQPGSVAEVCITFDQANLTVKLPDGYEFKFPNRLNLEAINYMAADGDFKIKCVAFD
Description: as §1
(§3) Fluorescence polarization experiments
(§4) Human galectin-11 and galectin-32 were expressed and purified as earlier described. Fluorescence polarization experiments were performed on a PheraStarFS plate reader with software PHERAstar Mars version 2.10 R3 (BMG, Offenburg, Germany). Specific experimental conditions were a galectin-1 concentration of 0.5 µM together with the fluorescent probe (3,3’-dideoxy-3-[4-(fluorescein-5-yl-carbonylaminomethyl)-1H-1,2,3-triazol-1-yl]-3’-(3,5-di-methoxybenzamido)-1,1’-sulfanediyl-di-β-D-galactopyranoside 1 concentration of 20 nM and a galectin-3 concentration of 0.2 µM together with the fluorescent probe (3,3’-dideoxy-3-[4-(fluorescein-5-yl-carbonylaminomethyl)-1H-1,2,3- […]
as §2

galectin-3 = biological target: T4, galectin-3 (Homo sapiens, UniProt P17931); assay: competitive fluorescence polarization assay, galectin-3; settings: Kd and SEM from 3–6 single point measurements, > values estimated, no apparent binding at highest concentration, read-out: Dissociation constants, Galectin-3
T4 construct: made in house
T4 sequence (P17931 whole entry): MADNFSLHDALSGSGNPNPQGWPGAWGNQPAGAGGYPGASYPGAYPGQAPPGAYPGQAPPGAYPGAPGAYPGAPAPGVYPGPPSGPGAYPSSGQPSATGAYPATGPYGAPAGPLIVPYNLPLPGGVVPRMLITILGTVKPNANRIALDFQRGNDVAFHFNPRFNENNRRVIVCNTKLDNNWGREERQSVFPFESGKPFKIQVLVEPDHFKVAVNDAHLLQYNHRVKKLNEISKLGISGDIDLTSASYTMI
Description: as §1, §3, §4, §2

Row | Kd (galectin-4N) [µM] | fold better galectin-4C affinity compared to 1a–b (galectin-4C; effect of adding the C3 phenyltriazolyl) [fold] | Kd (galectin-4C) [µM] | Kd (galectin-1) [µM] | Kd (galectin-3) [µM] | fold stronger affinity for galectin-4C compared to galectin-1 and galectin-3 (galectin-4C; ratio of Kd) [fold] | SMILES | galectin-4C selectivity over other galectins (galectin-4C; ratio of Kd)
1 | 760 ± 32 | – | 12 ± 1.7 | 440 ± 68 | 720 ± 78 | – | OC[C@H]1O[C@@H](Cn2cc(-c3ccc(C(F)(F)F)cc3)nn2)[C@H](O)[C@@H](n2cc(-c3ccccc3)nn2)[C@H]1O [Compound 24b, 1-((4-(1-Phenyl-1H-1,2,3-triazol-4-yl)-1,3-dideoxy-β-D-galactopyranosyl)methyl)-4-(4-(trifluoromethyl)phenyl)-1H-1,2,3-triazole] | twenty-onefold and up to thirty-sevenfold
2 | 290 ± 32 | – | 19 ± 2.9 | 140 ± 5 | 90 ± 13 | – | OC[C@H]1O[C@@H](Cn2cc(-c3ccccc3)nn2)[C@H](O)[C@@H](n2cc(-c3ccccc3)nn2)[C@H]1O [Compound 24c, 1-((4-(1-Phenyl-1H-1,2,3-triazol-4-yl)-1,3-dideoxy-β-D-galactopyranosyl)methyl)-4-phenyl-1H-1,2,3-triazole] | –

More lines, now with the values behind:

Row | SMILES | Kd (galectin-4N) [µM] | fold better galectin-4C affinity compared to 1a–b (galectin-4C; effect of adding the C3 phenyltriazolyl) [fold] | Kd (galectin-4C) [µM] | Kd (galectin-1) [µM] | Kd (galectin-3) [µM] | fold stronger affinity for galectin-4C compared to galectin-1 and galectin-3 (galectin-4C; ratio of Kd) [fold] | galectin-4C selectivity over other galectins (galectin-4C; ratio of Kd)
3 | OC[C@H]1O[C@@H](c2cn(-c3ccccn3)nn2)[C@H](O)[C@@H](n2cc(-c3ccccc3)nn2)[C@H]1O [Compound 16b, 1,3-Dideoxy-1-(1-(2-pyridyl)-1H-1,2,3-triazol-4-yl)-3-(4-(phenyl)-1H-1,2,3-triazolyl)-β-D-galactopyranosyl] | 240 ± 54 | ≤ 79 | 9.6 ± 2.3 | 180 ± 1 | 34 ± 3 | – | –
4 | OC[C@H]1O[C@@H](Cn2cc(-c3ccc(F)cc3)nn2)[C@H](O)[C@@H](n2cc(-c3ccccc3)nn2)[C@H]1O [Compound 24a] | 130 ± 20 | – | 9.5 ± 1.3 | 220 ± 10 | 200 ± 32 | 20 | twenty-onefold and up to thirty-sevenfold
5 | OC[C@H]1O[C@@H](Cn2cc(-c3cc(F)c(F)c(F)c3)nn2)[C@H](O)[C@@H](n2cc(-c3ccccc3)nn2)[C@H]1O [Compound 24d] | 130 ± 23 | – | 22 ± 2.8 | 240 ± 5 | 91 ± 2 | – | –
